Measured values published in patent US11517556B2, “Composition for BKCa channel activation” (GWANGJU INSTITUTE OF SCIENCE AND TECHNOLOGY, priority 2016, dated 2022).

How the values were obtained:
rat bladder strips = test: Isometric tension recording of bladder smooth muscle strips (ACh-induced contraction); details: 100 μM, 30 min pre-incubation, 1 μM ACh, compared to vehicle, n=6
Protocol: […] tension recording of UBSM experiment was performed by a known method (Dela Pena et al. 2009; Kullmann et al. 2014). In short, a male Sprague-Dawley rat (300-350 g) was euthanized by CO2 choking. Then, the bladder of the rat was excised. The bladder was longitudinally divided into four strips (approximately 2×8 mm). Each separated strip was clipped between a static mount and a force-displacement transducer. Then, the clipped strips were suspended in a temperature-controlled (37° C.) organ bath containing 10 ml of Krebs solution ((mM): 118.4 NaCl, 4.7 KCl, 1.2 KH2PO4, 1.2 MgSO4, 25.0 NaHCO3, 2.5 CaCl2, and 12.2 glucose; pH 7.35-7.40). Then, a mixture of 95% 02 and 5% CO2 was used to continuously generate bubbles in the organ bath. Each UBSM strip was stretched to 1.0 gram of an optimal isometric tension, and was equilibrated for 60 minutes. […] After reaching the equilibration, the strips were stabilized via repeated application of acetylcholine (1 μM) until a continuous reaction was recorded. […] Relaxation was expressed as a percentage reduction in the tension due to acetylcholine-induced contraction. […] Changes in the isometric tension were recorded using a Power Lab Data Acquisition System (ADInstruments) associated with a computer with Lab Chart Software (Version 7, AD Instruments) installed therein. […]

[1] = tested on: spontaneous hypertensive rats (SHR); test: Voiding behavior of spontaneous hypertensive rats (SHR); type: in vivo, rat
Protocol: (§1) The voiding frequency was monitored for 3 hours. FIG. 9B represents a total number of voidings. Each symbol or bar represents average±SEM of 5 (WKY) or 7 (SHR) animals (*** P<0.001).
(§2) The cumulative voiding frequency is shown in FIG. 9A for WKY and SHR orally administered with kurarinone. The administration of kurarinone may allow distinct differences in voiding frequency to be evident between WKY and SHR. […] In the WKY control rat, the decrease of the voiding frequency was not observed.

[2] = biological target: T1, rat BKCa channel α-subunit (rSlo1) (Rattus norvegicus, UniProt Q62976); test: Macroscopic current patch-clamp recording, Xenopus oocyte excised patches; type: cell-based
T1 construct: expressed in transfected cells; host or cells: Xenopus laevis oocytes injected with cRNA (vector pNBC1.0)
T1 sequence (Q62976 whole entry): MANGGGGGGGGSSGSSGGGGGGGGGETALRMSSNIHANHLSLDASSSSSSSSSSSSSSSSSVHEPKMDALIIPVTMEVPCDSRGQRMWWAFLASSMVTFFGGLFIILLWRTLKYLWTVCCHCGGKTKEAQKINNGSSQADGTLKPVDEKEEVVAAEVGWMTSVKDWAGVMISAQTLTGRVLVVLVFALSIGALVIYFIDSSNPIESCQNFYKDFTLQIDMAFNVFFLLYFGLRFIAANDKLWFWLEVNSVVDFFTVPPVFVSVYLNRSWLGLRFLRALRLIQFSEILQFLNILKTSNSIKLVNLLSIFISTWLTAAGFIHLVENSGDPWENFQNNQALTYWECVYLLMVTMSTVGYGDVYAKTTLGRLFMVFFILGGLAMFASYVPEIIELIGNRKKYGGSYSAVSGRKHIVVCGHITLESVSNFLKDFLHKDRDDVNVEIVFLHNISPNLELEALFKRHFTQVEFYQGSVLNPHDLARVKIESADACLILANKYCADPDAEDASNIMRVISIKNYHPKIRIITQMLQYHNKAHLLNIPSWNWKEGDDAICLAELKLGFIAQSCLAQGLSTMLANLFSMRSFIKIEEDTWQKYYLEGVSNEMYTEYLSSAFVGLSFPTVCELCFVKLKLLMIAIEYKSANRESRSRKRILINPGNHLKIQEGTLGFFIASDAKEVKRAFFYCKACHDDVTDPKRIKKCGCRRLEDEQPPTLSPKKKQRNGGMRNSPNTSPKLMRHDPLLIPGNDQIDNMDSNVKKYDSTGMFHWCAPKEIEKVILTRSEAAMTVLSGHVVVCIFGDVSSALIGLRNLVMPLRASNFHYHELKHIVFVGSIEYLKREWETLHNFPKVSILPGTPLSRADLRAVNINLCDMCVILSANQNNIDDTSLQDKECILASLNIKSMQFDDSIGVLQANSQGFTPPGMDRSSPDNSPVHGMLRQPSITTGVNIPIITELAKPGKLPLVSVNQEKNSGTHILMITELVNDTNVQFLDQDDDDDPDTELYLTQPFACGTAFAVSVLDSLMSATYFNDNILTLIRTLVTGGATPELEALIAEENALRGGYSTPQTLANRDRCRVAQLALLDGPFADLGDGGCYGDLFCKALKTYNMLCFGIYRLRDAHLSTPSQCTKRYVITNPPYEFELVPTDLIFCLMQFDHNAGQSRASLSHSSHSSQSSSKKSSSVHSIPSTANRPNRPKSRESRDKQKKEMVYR
Description: Xenopus laevis oocytes heterologously expressing a BKCa channel α-subunit (Slo1) were used for electrophysiological recording. Subcloning and functional expression of the rat BKCa channel α-subunit using the oocyte expression vector pNBC1.0 has been reported (Ha et al., 2000). Sequence information of Slo1 used in the present disclosure is published in GenBank as expression number AF135265. Plasmid DNA was linearized using Notl restriction enzyme, and complementary RNA (cRNA) was synthesized using T7 RNA polymerase in the presence of nucleoside triphosphate and cap analog m7G(5′)ppp(5′)G from a linear form of DNA using mMessage Machine (Ambion).
Oocytes from stages V to VI were surgically removed from ovarian lobes of anesthetized X. laevis (Xenopus I, Dexter, Mich.). The removed oocytes were transferred to a Ca^2+-free oocyte ringer's (OR) culture medium (86 mM NaCl, 1.5 mM KCl, 2 mM MgCl2 and 10 mM HEPES, pH 7.6). The oocytes were cultured in Ca^2+-free OR medium containing 3 mg/ml collagenase (Worthington Biochemicals) for 1 hour and 30 minutes to 2 hours. This removed the follicular cell layer of the oocyte. Then, the oocytes were widely washed with Ca^2+-free OR culture medium and ND-96 medium (96 mM NaCl, 2 mM KCl, 1.8 mM CaCl2, 1 mM MgCl2, 5 mM HEPES, and 50 µg/ml gentamycin, pH 7.6). The washed oocytes were stored at 18° C. in ND-96 medium. Before oocyte was used, the oocyte was stabilized for at least one day. After the stabilization, approximately 50 ng of synthesized cRNA in 50 nl of nuclease-free water was injected into each oocyte for macroscopic current recording, and approximately 1 ng of synthesized cRNA in 50 nl of nuclease-free water was injected into each oocyte for single-channel recording using a micro-dispenser (Drummond Scientific, Broomall, Pa.). The cRNA-injected oocytes were cultured in ND-96 medium for 1 to 3 days at 18 degree C. Immediately prior to the patch-clamp experiment, the oocyte's vitelline membrane was manually removed with fine forceps.
[…] Patch pipettes were prepared from borosilicate and glass (WPI, Sarasota, Fla.). The pipettes were fire-polished with a resistance of 2 to 4 MΩ for patch recording. For single-channel recording, the patch pipettes were fire-polished with 4 to 8 MΩ resistors. To reduce electrical noise, the pipettes were coated with beeswax. Using an Axopatch 200B amplifier (Axon Instruments), the channel current was amplified. Then, the current was low-pass filtered at 1 kHz using a four-pole Bessel filter. Then, the current was digitized at a rate of 10 points/ms using a Digidata 1200A (Axon Instruments).
A single BKCa channel was readily activated by a membrane potential simply transferred at 100 mV at a high concentration of intracellular Ca^2+. For the single-channel assay, the switching between the closed and open conditions was determined by setting a potency at a half of a unitary current amplitude. To determine the single-channel conductance of the expressed channel, the average amplitude of the channel current was obtained from the histograms fitted with Gaussian distributions. An average current for a membrane-pass voltage is shown. A slope-conductance values were obtained from linear regression. The macroscopic current of the expressed BKCa channel was activated by a voltage-clamp pulse delivered from a holding potential of −100 mV at 10 mV increment to a membrane potential of typically −80 to 200 mV, A dwell-time of recorded open and close events for the single BKCa channel was analyzed using a linear histogram method. The dwell-time distribution was fitted into a single index using simplex-least-squares fitting methods (Clampfit, Axon Instruments). A peak in the dwell-time distribution was located at a time-constant of an exponential component.
To prevent activation of endogenous calcium-activated chloride channels, solutions for single and macroscopic channel recording contained gluconate as a non-permeant negative ion. […]

Wistar Kyoto rat (WKY) = test: Voiding behavior of Wistar Kyoto rat (WKY); type: in vivo; details: up to 5 mg/kg
Protocol: as §1, §2

[3] = 5 μM, outside-out, 3 μM intracellular Ca2+, double-exponential fit
[4] = after removal of 5 μM kurarinone, outside-out

Question: How did the “relaxation effect on ACh-induced contraction” value (rat bladder strips) turn out when C=C(C)[C@H](CC=C(C)C)Cc1c(O)cc(OC)c2c1O[C@H](c1ccc(O)cc1O)CC2=O [kurarinone] was run?
Answer: 58.2±6.2%

Question: What about the “total voiding frequency for 3 hours” value ([1]; 5 mg/kg, vehicle 10.9±1.4) of the same molecule?
Answer: 6.9±0.8

Question: And the “effect on voiding frequency” value ([1]; 0.5 and 5 mg/kg)?
Answer: reduced the voiding frequency for SHR in a dose-dependent manner

Question: And the “activation time-constant (τactivation)” value ([2]; 0, 5, 10, 20 μM)?
Answer: not significantly increased

Question: What about the effect on tail-current ([2]; 5 μM on the extracellular surface, outside-out patch, 3 μM intracellular Ca2+) of the same molecule?
Answer: strongly potentiates the tail-current

Question: What about the “association time-constant, fast phase (τfast) of potentiation” value [2, 3] of the same molecule?
Answer: 1.47 ± 0.34 s

Question: And the “association time-constant, low-speed phase (τslow) of potentiation” value [2, 3]?
Answer: 64.9 ± 8.8 s

Question: And the “maximum conductance relative to vehicle control” value ([2]; 20 μM)?
Answer: 1.8 times

Question: And the “shift of V1/2 in the negative direction” value ([2]; 20 μM vs vehicle)?
Answer: approximately 80 mV

Question: What about the “half-active voltage (V1/2) of G-V relationship” value ([2]; 20 μM, 3 μM [Ca2+]i, vehicle 107.4±2.2 mV) of the same molecule?
Answer: 27.7±3.0 mV

Question: And the “maximum conductance (G/Gmax)” value ([2]; 20 μM, normalized to vehicle maximum)?
Answer: 1.35

Question: What about the “dissociation time-constant, fast phase of de-potentiation” value [2, 4] of the same molecule?
Answer: 2.78 ± 0.95 s

Question: And the “dissociation time-constant, slow phase of de-potentiation” value [2, 4]?
Answer: 90.06 ± 12.21 s

Question: And the “change in BKCa channel current on treatment from the inside of the cell” value ([2]; excised inside-out patch recording)?
Answer: no significant change

Question: And the deactivation rate ([2]; increasing concentrations up to 20 μM, voltage-dependent)?
Answer: dramatically decreased

Question: And the “effect on voiding frequency” value (Wistar Kyoto rat (WKY))?
Answer: not affected
